Measured values from ChEMBL document CHEMBL5291721, “A preclinical secondary pharmacology resource illuminates target-adverse drug reaction associations of marketed drugs” (Nat Commun, 2023).

What was measured:
[1] = target: cGMP-inhibited 3',5'-cyclic phosphodiesterase 3A (Homo sapiens, UniProt Q14432); type: functional
[2] = target: Histamine H3 receptor (Homo sapiens, UniProt Q9Y5N1)
[3] = target: T1, Prostaglandin G/H synthase 1 (Homo sapiens, UniProt P23219); type: functional
[4] = target: 5-hydroxytryptamine receptor 2B (Homo sapiens, UniProt P41595); type: functional, cell-based
[5] = target: Prothrombin (Homo sapiens, UniProt P00734); type: functional
[6] = target: T2, Muscarinic acetylcholine receptor M1 (Homo sapiens, UniProt P11229); type: functional, cell-based
T2 sequence (P11229 whole entry): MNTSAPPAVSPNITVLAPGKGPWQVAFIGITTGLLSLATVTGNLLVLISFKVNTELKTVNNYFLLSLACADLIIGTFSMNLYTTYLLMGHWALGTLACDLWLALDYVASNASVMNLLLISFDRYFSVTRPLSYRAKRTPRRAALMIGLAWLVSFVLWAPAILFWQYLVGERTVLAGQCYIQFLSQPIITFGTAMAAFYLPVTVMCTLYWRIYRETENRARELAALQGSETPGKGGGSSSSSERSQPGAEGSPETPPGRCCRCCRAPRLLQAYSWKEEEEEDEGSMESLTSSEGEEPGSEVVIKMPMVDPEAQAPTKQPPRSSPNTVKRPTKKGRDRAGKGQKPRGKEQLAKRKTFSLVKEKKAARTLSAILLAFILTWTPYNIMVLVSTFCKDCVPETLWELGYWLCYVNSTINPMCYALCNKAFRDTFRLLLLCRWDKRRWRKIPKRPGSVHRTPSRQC

[7] = target: T1, Prostaglandin G/H synthase 1; type: functional; remark: listed apart in the source
[8] = target: T3, Amine oxidase [flavin-containing] A (Homo sapiens, UniProt P21397); type: functional
T3 sequence (P21397 whole entry): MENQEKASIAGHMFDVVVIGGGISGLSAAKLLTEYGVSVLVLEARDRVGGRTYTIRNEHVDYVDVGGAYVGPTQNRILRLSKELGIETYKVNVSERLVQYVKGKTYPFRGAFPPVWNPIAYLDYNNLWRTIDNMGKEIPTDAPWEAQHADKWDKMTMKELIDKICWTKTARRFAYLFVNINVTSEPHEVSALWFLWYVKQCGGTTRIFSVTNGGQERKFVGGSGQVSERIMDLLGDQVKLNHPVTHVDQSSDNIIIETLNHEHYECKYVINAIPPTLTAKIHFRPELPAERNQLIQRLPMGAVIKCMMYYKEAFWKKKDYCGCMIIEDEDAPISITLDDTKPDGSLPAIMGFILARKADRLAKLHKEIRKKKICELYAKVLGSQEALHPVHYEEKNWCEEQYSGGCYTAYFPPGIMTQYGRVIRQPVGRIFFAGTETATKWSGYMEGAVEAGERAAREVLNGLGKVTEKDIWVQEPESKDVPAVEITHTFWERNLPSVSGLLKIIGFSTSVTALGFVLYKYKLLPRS

[9] = target: T4, Thromboxane A2 receptor (Homo sapiens, UniProt P21731); type: functional, cell-based
T4 sequence (P21731 whole entry): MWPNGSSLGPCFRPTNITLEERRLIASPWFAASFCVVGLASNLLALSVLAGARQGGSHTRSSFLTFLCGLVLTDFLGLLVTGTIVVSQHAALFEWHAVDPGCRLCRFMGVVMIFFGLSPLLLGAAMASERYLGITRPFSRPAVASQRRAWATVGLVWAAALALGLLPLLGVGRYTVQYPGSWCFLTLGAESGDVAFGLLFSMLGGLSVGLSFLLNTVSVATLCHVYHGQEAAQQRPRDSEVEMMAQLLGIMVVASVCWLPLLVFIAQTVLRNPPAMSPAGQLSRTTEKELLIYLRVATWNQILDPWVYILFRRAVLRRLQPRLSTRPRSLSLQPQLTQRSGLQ

[10] = target: Acetylcholinesterase (Homo sapiens, UniProt P22303); type: functional
[11] = target: D(3) dopamine receptor (Homo sapiens, UniProt P35462)
[12] = target: Sodium-dependent serotonin transporter (Homo sapiens, UniProt P31645)
[13] = target: T5, Progesterone receptor (Homo sapiens, UniProt P06401)
T5 sequence (P06401 whole entry): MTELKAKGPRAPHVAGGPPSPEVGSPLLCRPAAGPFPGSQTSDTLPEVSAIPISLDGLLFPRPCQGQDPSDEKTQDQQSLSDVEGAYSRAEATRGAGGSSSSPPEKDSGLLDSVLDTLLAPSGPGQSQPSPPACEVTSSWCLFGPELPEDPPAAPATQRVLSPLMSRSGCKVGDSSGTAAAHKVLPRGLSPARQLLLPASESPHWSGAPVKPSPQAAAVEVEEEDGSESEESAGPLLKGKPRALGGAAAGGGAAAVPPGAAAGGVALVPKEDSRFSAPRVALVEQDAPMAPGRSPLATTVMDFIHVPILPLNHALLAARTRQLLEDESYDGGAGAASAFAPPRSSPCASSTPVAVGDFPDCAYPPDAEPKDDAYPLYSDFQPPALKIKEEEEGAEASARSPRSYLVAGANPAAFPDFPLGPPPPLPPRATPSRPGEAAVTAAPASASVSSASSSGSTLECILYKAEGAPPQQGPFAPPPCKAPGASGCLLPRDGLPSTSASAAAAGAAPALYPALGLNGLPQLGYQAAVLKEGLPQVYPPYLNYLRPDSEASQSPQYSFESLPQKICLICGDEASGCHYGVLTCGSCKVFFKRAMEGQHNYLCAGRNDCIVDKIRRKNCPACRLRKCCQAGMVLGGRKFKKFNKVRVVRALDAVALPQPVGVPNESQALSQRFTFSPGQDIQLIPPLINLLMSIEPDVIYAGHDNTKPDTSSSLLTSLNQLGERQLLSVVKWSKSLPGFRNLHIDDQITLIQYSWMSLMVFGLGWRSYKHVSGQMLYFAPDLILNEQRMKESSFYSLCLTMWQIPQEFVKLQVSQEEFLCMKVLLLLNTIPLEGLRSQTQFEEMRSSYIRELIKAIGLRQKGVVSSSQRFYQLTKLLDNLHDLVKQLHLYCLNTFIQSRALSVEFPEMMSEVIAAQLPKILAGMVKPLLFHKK

[14] = target: Voltage-gated inwardly rectifying potassium channel KCNH2 (Homo sapiens, UniProt Q12809); type: functional; details: read-out: AC50
[15] = target: Vascular endothelial growth factor receptor 2 (Homo sapiens, UniProt P35968); type: functional
Also: assay procedure not described here.

Acetylcholinesterase, sequence (P22303 whole entry): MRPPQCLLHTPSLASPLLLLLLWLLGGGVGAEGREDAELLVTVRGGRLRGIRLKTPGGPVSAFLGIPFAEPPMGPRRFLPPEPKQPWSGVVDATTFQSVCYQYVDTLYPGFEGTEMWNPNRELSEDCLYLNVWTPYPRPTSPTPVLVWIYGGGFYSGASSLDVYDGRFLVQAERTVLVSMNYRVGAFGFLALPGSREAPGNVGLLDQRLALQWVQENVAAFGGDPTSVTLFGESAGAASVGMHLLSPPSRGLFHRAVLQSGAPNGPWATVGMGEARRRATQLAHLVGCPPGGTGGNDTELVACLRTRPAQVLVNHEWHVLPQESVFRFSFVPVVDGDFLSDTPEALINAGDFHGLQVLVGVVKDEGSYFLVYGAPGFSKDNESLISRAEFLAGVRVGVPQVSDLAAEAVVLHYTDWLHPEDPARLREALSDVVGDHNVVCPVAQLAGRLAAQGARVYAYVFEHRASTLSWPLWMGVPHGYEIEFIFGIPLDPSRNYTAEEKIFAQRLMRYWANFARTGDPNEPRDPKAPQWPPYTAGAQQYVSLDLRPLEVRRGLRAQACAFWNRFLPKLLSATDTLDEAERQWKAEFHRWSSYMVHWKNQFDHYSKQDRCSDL
D(3) dopamine receptor, sequence (P35462 whole entry): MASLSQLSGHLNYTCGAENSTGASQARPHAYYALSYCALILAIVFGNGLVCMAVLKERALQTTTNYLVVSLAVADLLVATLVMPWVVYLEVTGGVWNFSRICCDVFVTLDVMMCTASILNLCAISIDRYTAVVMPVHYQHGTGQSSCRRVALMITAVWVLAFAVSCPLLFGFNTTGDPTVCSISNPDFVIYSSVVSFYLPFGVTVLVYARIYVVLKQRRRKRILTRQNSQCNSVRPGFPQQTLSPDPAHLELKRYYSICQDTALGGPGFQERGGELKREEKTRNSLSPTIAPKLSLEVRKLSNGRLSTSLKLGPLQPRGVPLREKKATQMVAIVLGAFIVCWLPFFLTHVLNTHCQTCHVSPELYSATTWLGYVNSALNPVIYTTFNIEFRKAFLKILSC
T1 sequence (P23219 whole entry): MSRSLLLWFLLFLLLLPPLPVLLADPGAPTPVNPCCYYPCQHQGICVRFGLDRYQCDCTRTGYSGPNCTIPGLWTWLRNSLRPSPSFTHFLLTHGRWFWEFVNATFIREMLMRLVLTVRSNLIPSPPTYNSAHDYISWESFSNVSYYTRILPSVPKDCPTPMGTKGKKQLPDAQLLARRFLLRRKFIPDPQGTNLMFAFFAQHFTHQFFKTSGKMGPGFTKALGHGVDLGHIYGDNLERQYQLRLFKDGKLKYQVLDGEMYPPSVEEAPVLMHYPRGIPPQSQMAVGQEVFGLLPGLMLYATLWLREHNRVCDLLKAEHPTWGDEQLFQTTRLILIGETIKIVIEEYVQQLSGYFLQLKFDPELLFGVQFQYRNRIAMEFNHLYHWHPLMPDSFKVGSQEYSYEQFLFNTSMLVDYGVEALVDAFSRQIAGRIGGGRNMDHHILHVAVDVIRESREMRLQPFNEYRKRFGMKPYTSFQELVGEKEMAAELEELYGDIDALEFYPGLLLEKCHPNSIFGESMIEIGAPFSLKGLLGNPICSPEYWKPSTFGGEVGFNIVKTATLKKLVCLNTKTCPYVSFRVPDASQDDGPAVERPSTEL
Histamine H3 receptor, sequence (Q9Y5N1 whole entry): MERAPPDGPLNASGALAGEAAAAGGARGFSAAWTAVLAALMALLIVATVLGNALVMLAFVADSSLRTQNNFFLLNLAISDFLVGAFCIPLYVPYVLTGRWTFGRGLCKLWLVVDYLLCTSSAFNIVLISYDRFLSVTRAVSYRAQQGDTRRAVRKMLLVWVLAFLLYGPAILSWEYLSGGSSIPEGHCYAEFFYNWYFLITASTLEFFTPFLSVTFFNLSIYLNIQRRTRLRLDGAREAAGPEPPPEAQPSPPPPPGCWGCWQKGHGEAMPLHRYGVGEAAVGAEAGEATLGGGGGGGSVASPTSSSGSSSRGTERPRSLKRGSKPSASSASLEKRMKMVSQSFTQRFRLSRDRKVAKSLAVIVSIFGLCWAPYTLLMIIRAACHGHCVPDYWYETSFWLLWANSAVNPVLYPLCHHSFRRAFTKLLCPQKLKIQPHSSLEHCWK
5-hydroxytryptamine receptor 2B, sequence (P41595 whole entry): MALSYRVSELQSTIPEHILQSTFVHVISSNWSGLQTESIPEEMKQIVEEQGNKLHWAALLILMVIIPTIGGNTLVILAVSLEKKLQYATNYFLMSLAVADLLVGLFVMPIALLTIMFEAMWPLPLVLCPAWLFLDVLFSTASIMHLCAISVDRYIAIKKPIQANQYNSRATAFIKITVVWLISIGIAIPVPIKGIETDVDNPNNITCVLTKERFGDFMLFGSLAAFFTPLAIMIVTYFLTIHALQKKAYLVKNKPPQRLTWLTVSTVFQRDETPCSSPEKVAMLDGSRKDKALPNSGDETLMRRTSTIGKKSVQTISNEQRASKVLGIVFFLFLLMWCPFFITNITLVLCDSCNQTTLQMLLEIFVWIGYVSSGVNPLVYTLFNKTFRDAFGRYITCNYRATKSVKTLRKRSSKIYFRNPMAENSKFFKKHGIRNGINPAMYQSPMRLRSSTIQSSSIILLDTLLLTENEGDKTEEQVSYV
Sodium-dependent serotonin transporter, sequence (P31645 whole entry): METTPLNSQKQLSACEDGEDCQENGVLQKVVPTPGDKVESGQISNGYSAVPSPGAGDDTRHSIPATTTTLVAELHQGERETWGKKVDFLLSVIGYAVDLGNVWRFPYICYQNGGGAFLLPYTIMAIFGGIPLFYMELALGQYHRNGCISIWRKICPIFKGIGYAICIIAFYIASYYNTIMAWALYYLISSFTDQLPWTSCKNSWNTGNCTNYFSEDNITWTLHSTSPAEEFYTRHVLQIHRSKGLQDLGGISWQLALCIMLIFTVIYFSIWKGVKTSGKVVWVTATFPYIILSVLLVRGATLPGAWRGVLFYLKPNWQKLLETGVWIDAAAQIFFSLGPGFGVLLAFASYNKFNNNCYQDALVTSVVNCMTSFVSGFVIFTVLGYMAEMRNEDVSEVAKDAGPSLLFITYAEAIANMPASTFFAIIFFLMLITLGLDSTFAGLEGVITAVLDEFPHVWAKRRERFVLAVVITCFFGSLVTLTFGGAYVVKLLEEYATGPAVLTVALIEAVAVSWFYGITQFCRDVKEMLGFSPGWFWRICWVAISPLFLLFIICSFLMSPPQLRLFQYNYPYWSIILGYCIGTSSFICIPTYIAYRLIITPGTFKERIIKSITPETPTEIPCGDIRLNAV
Voltage-gated inwardly rectifying potassium channel KCNH2, sequence (Q12809 whole entry): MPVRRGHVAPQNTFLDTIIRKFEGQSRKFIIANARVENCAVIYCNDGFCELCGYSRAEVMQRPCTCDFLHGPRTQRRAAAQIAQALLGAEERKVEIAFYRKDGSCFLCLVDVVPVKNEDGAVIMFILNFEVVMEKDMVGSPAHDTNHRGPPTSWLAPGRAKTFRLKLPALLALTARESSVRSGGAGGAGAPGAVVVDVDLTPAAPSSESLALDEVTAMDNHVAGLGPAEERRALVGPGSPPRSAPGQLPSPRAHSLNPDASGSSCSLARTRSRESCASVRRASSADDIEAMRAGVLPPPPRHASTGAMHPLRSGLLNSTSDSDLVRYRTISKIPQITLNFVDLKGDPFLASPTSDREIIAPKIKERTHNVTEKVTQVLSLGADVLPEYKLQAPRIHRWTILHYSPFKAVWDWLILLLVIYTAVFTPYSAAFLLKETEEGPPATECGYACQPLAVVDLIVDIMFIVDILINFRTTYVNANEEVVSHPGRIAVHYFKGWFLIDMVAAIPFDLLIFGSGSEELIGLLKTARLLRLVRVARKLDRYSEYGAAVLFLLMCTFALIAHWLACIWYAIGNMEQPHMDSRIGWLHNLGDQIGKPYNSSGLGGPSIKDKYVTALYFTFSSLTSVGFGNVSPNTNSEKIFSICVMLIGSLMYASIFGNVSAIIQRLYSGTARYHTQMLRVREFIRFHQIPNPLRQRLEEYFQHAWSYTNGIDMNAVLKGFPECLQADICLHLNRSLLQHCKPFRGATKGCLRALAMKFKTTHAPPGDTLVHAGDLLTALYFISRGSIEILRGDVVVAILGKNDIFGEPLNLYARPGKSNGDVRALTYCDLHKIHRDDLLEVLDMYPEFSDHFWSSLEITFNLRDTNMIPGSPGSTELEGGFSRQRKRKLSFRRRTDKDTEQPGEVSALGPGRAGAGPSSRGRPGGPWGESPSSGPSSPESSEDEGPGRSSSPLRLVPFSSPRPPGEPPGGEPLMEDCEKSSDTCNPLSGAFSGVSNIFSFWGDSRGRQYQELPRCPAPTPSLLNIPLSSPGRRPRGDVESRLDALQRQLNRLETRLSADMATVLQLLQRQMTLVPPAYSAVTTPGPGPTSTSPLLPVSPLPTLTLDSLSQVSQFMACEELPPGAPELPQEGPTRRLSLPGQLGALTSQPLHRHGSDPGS

Row | SMILES | AC50 [1] [µM] | AC50 [2] [µM] | AC50 [3] [µM] | AC50 [4] [µM] | AC50 [5] [µM] | AC50 [6] [µM] | AC50 [7] [µM] | AC50 [8] [µM] | AC50 [9] [µM] | AC50 [10] [µM] | AC50 [11] [µM] | AC50 [12] [µM] | AC50 [13] [µM] | AC50 [14] [µM] | AC50 [15] [µM]
1 | OC(c1ccccc1)(c1ccccc1)C12CC[N+](CCOCc3ccccc3)(CC1)CC2 | > 30 | > 30 | > 30 | > 30 | > 30 | 0.0053 | > 30 | > 30 | > 30 | > 30 | > 30 | 0.302 | > 30 | – | –
2 | CCC(CC)(CC(=O)Nc1cccc(/C=C/c2nc(C3CCC3)cs2)c1)C(=O)O | > 30 | > 30 | 26.2 | > 30 | > 30 | > 3 | > 30 | > 30 | > 10 | > 30 | > 30 | > 30 | > 30 | > 30 | –
3 | CN1CCN(C2=Nc3ccccc3Sc3ccc(Cl)cc32)CC1 [CLOTHIAPINE] | > 30 | > 30 | > 30 | > 30 | > 30 | 0.42 | > 30 | > 30 | > 10 | > 30 | 0.0061 | 4.87 | > 30 | 4.1 | –
4 | CCOc1ccc(Cc2cc([C@@H]3O[C@H](CO)[C@@H](O)[C@H](O)[C@H]3O)ccc2Cl)cc1 [DAPAGLIFLOZIN] | > 30 | > 30 | > 30 | > 30 | > 30 | > 30 | > 30 | > 30 | > 30 | > 30 | > 30 | – | > 30 | > 30 | > 30
5 | O=[N+]([O-])O[C@@H]1CO[C@H]2[C@@H]1OC[C@@H]2O [ISOSORBIDE MONONITRATE] | > 30 | > 30 | > 30 | > 30 | > 30 | > 30 | > 30 | > 30 | > 30 | > 30 | > 30 | > 30 | > 30 | > 30 | –
6 | O=[N+]([O-])c1cn2c(n1)OC[C@@H](OCc1ccc(OC(F)(F)F)cc1)C2 [PRETOMANID] | > 30 | > 30 | > 30 | > 30 | > 30 | 10.6 | > 30 | > 30 | > 30 | > 30 | > 30 | > 30 | > 30 | – | –
7 | Nc1ccc2cc3ccc(N)cc3nc2c1 [PROFLAVINE] | > 30 | 16.3 | 22.1 | > 30 | 9.65 | – | 5.49 | 0.786 | > 0.3 | 1.84 | 22.9 | 26.6 | > 30 | 5 | 25.8
8 | Cc1oc(=O)oc1CN1CCN(c2cc3c(cc2F)c(=O)c(C(=O)O)c2n3C(C)S2)CC1 (centres undefined) [PRULIFLOXACIN] | > 30 | > 30 | > 30 | > 30 | > 30 | – | > 30 | > 30 | > 30 | > 30 | > 30 | > 30 | > 30 | > 30 | –
9 | O=C(Oc1ccc2c(c1)CCCN2C(=O)C(Cl)Cl)c1ccco1 [QUINFAMIDE] | > 30 | > 30 | > 30 | > 30 | > 30 | 15.4 | > 30 | > 30 | > 30 | > 30 | > 30 | > 30 | > 30 | > 30 | –
10 | CCCCCNC(=N)N/N=C/c1c[nH]c2ccc(OC)cc12 [TEGASEROD] | > 30 | > 30 | 20.4 | > 30 | > 30 | > 3 | 2.65 | 23.6 | > 3 | > 30 | 5.62 | 2.57 | > 30 | 4.8 | –
11 | CCCCS(=O)(=O)N[C@@H](Cc1ccc(OCCCCC2CCNCC2)cc1)C(=O)O [TIROFIBAN] | > 30 | > 30 | > 30 | > 30 | > 30 | > 10 | > 30 | > 30 | > 30 | > 30 | > 30 | 9.96 | > 30 | > 30 | –
12 | COC1=C(OC)C(=O)C(C/C=C(\C)CC/C=C(\C)CC/C=C(\C)CC/C=C(\C)CC/C=C(\C)CC/C=C(\C)CC/C=C(\C)CC/C=C(\C)CC/C=C(\C)CCC=C(C)C)=C(C)C1=O [UBIDECARENONE] | > 30 | > 30 | > 30 | > 30 | > 30 | > 30 | > 30 | > 30 | > 30 | > 30 | > 30 | > 30 | > 30 | > 30 | –
13 | CCOc1ccccc1OCC1CNCCO1 (centres undefined) [VILOXAZINE] | > 30 | > 30 | > 30 | > 30 | > 30 | > 30 | > 30 | > 30 | > 30 | > 30 | > 30 | – | > 30 | > 30 | > 30
